# In ChEMBL document CHEMBL3046899, “2D-QSAR of non-benzodiazepines to benzodiazepines receptor (BZR)” (Med Chem Res, 2009):
# Biological target: not listed separately
# Experiment: Binding affinity to GABA-A receptor benzodiazepine site (unknown origin)
# Parameters: species or system Homo sapiens
row,SMILES,pIC50
1,CCOC(=O)c1ncc2[nH]c3ccc(OCc4ccccc4)cc3c2c1COC,9
2,Nc1cc2c(cn1)[nH]c1ccccc12,4.6
3,S=C=Nc1cc2c(cn1)[nH]c1ccccc12,8.1
4,CC(=O)C(=O)c1cc2c(cn1)[nH]c1ccccc12,8
5,Oc1cc2c(cn1)[nH]c1ccccc12,5.4
6,CCOC(=O)c1cc2c(cn1)[nH]c1ccccc12,8.3
7,CCc1nc(C(=O)OC)cc2c1[nH]c1ccccc12,5.12
8,CC(C)(C)COC(=O)c1cc2c(cn1)[nH]c1ccccc12,6.12
9,CC(C)Oc1cc2c(cn1)[nH]c1ccccc12,6.29
10,CCCCOc1cc2c(cn1)[nH]c1ccccc12,7.01
11,O=[N+]([O-])c1cc2c(cn1)[nH]c1ccccc12,6.9
12,COc1cc2c(cn1)[nH]c1ccccc12,6.91
13,Clc1cc2c(cn1)[nH]c1ccccc12,7.35
14,CCOc1cc2c(cn1)[nH]c1ccccc12,7.62
15,CCCOc1cc2c(cn1)[nH]c1ccccc12,7.96
16,CCCC(=O)c1cc2c(cn1)[nH]c1ccccc12,7.64
17,CCCCc1cc2c(cn1)[nH]c1ccccc12,6.64
18,COC(=O)c1cc2c(cn1)[nH]c1ccccc12 [BETA-CCM],8.3
19,Cc1nccc2c1[nH]c1ccccc12 [HARMAN],4.91
20,c1ccc2c(c1)[nH]c1cnccc12 [NORHARMANE],5.79

# Biological target: GABA-A receptor; anion channel
# Experiment: Binding affinity to Rattus norvegicus (rat) brain GABA-A receptor benzodiazepine site
row,SMILES,pIC50
1,CNc1nc2c(N(C)C)ncnc2n1Cc1cccc(C)c1,5.14

# Biological target: GABA-A receptor; anion channel
# Experiment: Displacement of [3H]flunitrazepam from Rattus norvegicus (rat) brain GABA-A receptor benzodiazepine site
row,SMILES,pIC50
1,CCCc1c(OC)nc2nc(C(=O)c3ccccc3)cn2c1CC,7.328
2,CCc1c(OC)nc2nc(C(=O)c3ccccc3)cn2c1CC,7.252
